Reference: the supplement of paper PMC10307832

Legend:
Experiment in all cases: relative viability (nuclei count vs DMSO), 5 days (fraction); higher = more cells survive
[1] = compound: CC[C@@H](C)CNCC(=O)N1CCC2=C([C@@H]1COC3=CC=CC(=C3)C)C=CS2 [RU-SKI 43] + Cc1nc(NC(=O)N2CCC[C@H]2C(N)=O)sc1-c1ccnc(C(C)(C)C(F)(F)F)c1 [Alpelisib] (partner 2 µM)
In short: (§1)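 One day after seeding in 1536-well plates, lung cancer cell lines were dosed by pin tool. Dosing was either single-drug or a fixed anchor-drug dose plus five library-drug doses (not always all listed) in √10 steps. After 5 days, nuclei were stained in one fix-and-stain step and counted on 4× images, and relative viability is the nuclei count of treated wells over that of vehicle wells, given as the median of duplicate plates.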

[2] = compound: CCc1c2c(nc3ccc(OC(=O)N4CCC(N5CCCCC5)CC4)cc13)-c1cc3c(c(=O)n1C2)COC(=O)[C@]3(O)CC [Irinotecan] + Cc1nc(NC(=O)N2CCC[C@H]2C(N)=O)sc1-c1ccnc(C(C)(C)C(F)(F)F)c1 [Alpelisib] (partner 2 µM)
In short: as §1

[3] = compound: Cn1cc(-c2cnc3ccc4ccc(CS(=O)(=O)NCc5ccccn5)cc4c(=O)c3c2)cn1 [MK-8033] + Cc1nc(NC(=O)N2CCC[C@H]2C(N)=O)sc1-c1ccnc(C(C)(C)C(F)(F)F)c1 [Alpelisib] (partner 2 µM)
In short: as §1

[4] = compound: CCc1c2c(nc3ccc(OC(=O)N4CCC(N5CCCCC5)CC4)cc13)-c1cc3c(c(=O)n1C2)COC(=O)[C@]3(O)CC [Irinotecan] + C[C@@H](Oc1cc(-c2cnn(C3CCNCC3)c2)cnc1N)c1c(Cl)ccc(F)c1Cl [Crizotinib] (partner 1 µM)
In short: as §1

| Cell Line | relative viability ([1]; first compound 0.1 µM) | relative viability ([1]; first compound 0.3162 µM) | relative viability ([1]; first compound 1 µM) | relative viability ([1]; first compound 3.162 µM) | relative viability ([1]; first compound 10 µM) | relative viability ([2]; first compound 2 µM) | relative viability ([2]; first compound 6.325 µM) | relative viability ([2]; first compound 20 µM) | relative viability ([3]; first compound 0.02 µM) | relative viability ([3]; first compound 0.06325 µM) | relative viability ([3]; first compound 0.2 µM) | relative viability ([3]; first compound 0.6325 µM) | relative viability ([3]; first compound 2 µM) | relative viability ([4]; first compound 2 µM) | relative viability ([4]; first compound 6.325 µM) | relative viability ([4]; first compound 20 µM) | relative viability ([2]; first compound 0.6325 µM) | relative viability ([4]; first compound 0.6325 µM) |
| --- | --- | --- | --- | --- | --- | --- | --- | --- | --- | --- | --- | --- | --- | --- | --- | --- | --- | --- |
| 201T | 1.08 | 1.01 | 0.984 | 1.03 | 1.01 | 0.87 | 0.465 | 0.331 | 1.11 | 0.946 | 0.976 | 1.05 | 1.04 | 0.888 | 0.52 | 0.388 | – | – |
| A549 | 0.991 | 0.957 | 0.738 | 0.772 | 0.621 | 0.642 | 0.207 | 0.0613 | 0.692 | 0.685 | 0.83 | 0.456 | 0.651 | 0.511 | 0.143 | 0.0565 | 0.776 | 0.621 |
| A-427 | 1.13 | 1.16 | 1.18 | – | 1.02 | 0.19 | 0.176 | 0.185 | 1.05 | 1.07 | 1.03 | 1.16 | 1.11 | 0.243 | 0.179 | 0.214 | – | – |
| ABC-1 | 1.02 | 1.13 | 0.895 | 0.986 | 1.06 | 0.654 | 0.439 | 0.362 | 1.12 | 1.12 | 1.15 | 1.04 | 1.08 | 0.785 | 0.297 | 0.154 | – | – |
| BEN | 1.04 | 1.13 | 1.07 | 1.06 | 1 | 0.771 | 0.319 | 0.372 | 0.914 | 0.89 | 1 | 1.08 | 1 | 0.52 | 0.252 | 0.391 | 1.11 | 0.928 |
| CAL-12T | 1.06 | 1.53 | 1.44 | 1.39 | 1.25 | 1.19 | 0.422 | 0.309 | 1.08 | 1.08 | 1.08 | 1.25 | 1.06 | 0.766 | 0.374 | 0.326 | 1.08 | 0.728 |
| COR-L23 | 0.87 | 0.657 | 0.725 | 0.757 | 0.815 | 0.238 | 0.158 | 0.119 | 0.71 | 0.864 | 0.74 | 0.828 | 0.645 | 0.289 | 0.204 | 0.1 | 0.324 | 0.293 |
| COR-L 105 | 0.935 | 0.818 | 0.931 | 0.916 | 0.921 | 1.18 | 0.648 | 0.444 | 0.822 | 1.07 | 0.962 | 0.928 | 0.733 | 0.866 | 0.524 | 0.376 | 1.08 | 0.922 |
| Calu-6 | 0.994 | 1.14 | 0.994 | 1.03 | 0.989 | 0.543 | 0.291 | 0.119 | 1.02 | 1.02 | 0.843 | 0.941 | 0.916 | 0.525 | 0.226 | 0.114 | 0.826 | 0.548 |
| ChaGo-K-1 | – | – | – | – | – | – | – | – | – | – | – | – | – | 0.849 | 0.47 | 0.402 | – | – |
| EBC-1 | 0.784 | 0.92 | 0.925 | 0.799 | 0.68 | 0.387 | 0.385 | 0.161 | 0.832 | 0.686 | 0.904 | 0.678 | 0.207 | 0.165 | 0.203 | 0.151 | 0.621 | 0.191 |
| EKVX | 0.79 | 0.949 | 0.828 | 0.946 | 0.839 | 0.766 | 0.33 | 0.205 | 0.812 | 0.747 | 0.787 | 0.808 | 0.903 | 0.81 | 0.244 | 0.232 | 1.03 | 1.08 |
| EMC-BAC-2 | 0.769 | 0.752 | 0.762 | 0.733 | 0.893 | 0.28 | 0.165 | 0.181 | 0.666 | 0.709 | 0.743 | 0.713 | 0.68 | 0.291 | 0.216 | 0.19 | 0.483 | 0.332 |
| EPLC-272H | 1.12 | 0.968 | 0.987 | – | 0.948 | 0.203 | 0.183 | 0.267 | 0.91 | – | 0.877 | 0.948 | 1.02 | 0.163 | 0.2 | 0.264 | 0.44 | 0.504 |
| H3255 | 0.719 | 0.834 | 0.773 | 0.725 | 0.686 | 0.409 | 0.321 | 0.272 | 0.643 | 0.571 | 0.562 | 0.695 | 0.608 | 0.539 | 0.383 | 0.251 | 0.665 | 0.741 |
| HARA | 0.762 | 0.729 | 0.843 | 0.69 | 0.733 | 0.211 | 0.215 | 0.177 | 0.777 | 0.742 | 0.76 | 0.743 | 0.871 | 0.204 | 0.208 | 0.161 | 0.557 | 0.705 |
| HCC-15 | 0.96 | 1.02 | 0.963 | 0.931 | 0.844 | 0.239 | 0.144 | 0.173 | 0.847 | 0.947 | 0.863 | 0.841 | 0.875 | 0.319 | 0.158 | 0.18 | 0.478 | 0.479 |
| HCC-44 | 0.73 | 0.72 | 0.901 | 0.875 | 0.802 | 0.347 | 0.28 | 0.313 | 0.798 | 0.775 | 0.751 | 0.796 | 0.789 | 0.491 | 0.27 | 0.273 | 0.669 | 0.578 |
